Here are results for one compound from publication PMC7272715, “Functional Characterization of Pseudoidium neolycopersici Photolyase Reveals Mechanisms Behind the Efficacy of Nighttime UV on Powdery Mildew Suppression” (Frontiers in Microbiology, 2020).

This assay deals with T1, PnPHR1 (P. neolycopersici photolyase, PN0912) (Erysiphe neolycopersici, UniProt A0A7D3USA5).
T1 construct: GenBank MT277362-MT277364 printed for the three genes together (MT277363 only by order of listing)
T1 sequence (A0A7D3USA5 1-634): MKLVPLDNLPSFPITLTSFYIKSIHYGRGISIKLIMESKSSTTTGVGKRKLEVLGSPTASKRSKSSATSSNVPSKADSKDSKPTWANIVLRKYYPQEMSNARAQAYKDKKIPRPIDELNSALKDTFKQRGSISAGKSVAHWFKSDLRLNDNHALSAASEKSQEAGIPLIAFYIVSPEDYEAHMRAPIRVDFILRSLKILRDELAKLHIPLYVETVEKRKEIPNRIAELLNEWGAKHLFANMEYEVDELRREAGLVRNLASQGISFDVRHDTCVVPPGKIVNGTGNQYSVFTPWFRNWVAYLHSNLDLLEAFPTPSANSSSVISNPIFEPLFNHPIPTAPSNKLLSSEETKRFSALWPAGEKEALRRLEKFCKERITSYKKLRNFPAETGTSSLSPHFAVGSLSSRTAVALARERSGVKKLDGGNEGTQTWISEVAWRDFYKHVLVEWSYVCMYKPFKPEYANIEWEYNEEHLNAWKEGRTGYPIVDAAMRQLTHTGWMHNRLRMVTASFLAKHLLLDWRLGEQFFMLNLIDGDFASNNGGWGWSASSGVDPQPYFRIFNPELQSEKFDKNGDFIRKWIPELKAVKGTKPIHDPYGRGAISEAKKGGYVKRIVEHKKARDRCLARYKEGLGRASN
The assay is described as follows: absorption and fluorescence spectra of purified protein and of chromophore released by heat. The class given is binding. To be noted: pH 8.0 storage buffer, 22 °C; intrinsic chromophore co-purified from E. coli; identity inferred from emission (excitation 370 nm); no clear absorption maximum.

In the case of `Cc1cc2c(cc1C)N(C[C@H](O)[C@H](O)[C@H](O)COP(=O)(O)OP(=O)(O)OC[C@H]1O[C@@H](n3cnc4c(N)ncnc43)[C@H](O)[C@@H]1O)c1[nH]c(=O)[nH]c(=O)c1N2` [FADH^–], the “absorption and fluorescence spectra of purified protein and of chromophore relea” value is “could only reveal the presence of a reduced form of FAD, i.e., FADH^–”.
